According to article PMC7300217, “Surfactin Like Broad Spectrum Antimicrobial Lipopeptide Co-produced With Sublancin From Bacillus subtilis Strain A52: Dual Reservoir of Bioactives” (Frontiers in Microbiology, 2020):

Tests used:
B. coagulans MTCC 492 = assay: MIC, microtiter plate dilution assay; assay type: cell-based; conditions: 5 × 10^5 CFU/ml, 37°C, OD600 after 24 h, triplicate
Procedure: (§1) The minimum inhibitory concentration (MIC) of HPLC purified peptides was evaluated by using microtiter plate dilution assay. The peptide concentration was estimated using BCA protein assay (Thermo Fisher Scientific, United States) method as described by manufacturer. Actively growing test strains (5 × 10^5 CFU/ml) were inoculated in a 96-well plate with different concentrations of the peptides and plates were incubated for 24–48 h at 37°C (final volume in each well is 200 μl). OD was measured at 600 nm after 24 and 48 h for bacteria and yeast, respectively, using ELISA microplate reader (Thermo, United States). MIC against phytopathogenic fungi was determined using 96-well microtiter plate assay ([Kaur et al., 2016]). In 96-well microplates, 100 μl of fungal spore suspension (1 × 10^5 spores/ml) prepared in potato dextrose broth (PDB, Hi-media, India) was mixed with100 μl of fresh PDB containing different concentrations of lipopeptide. Control well contained 100 μl of fungal spore suspension and 100 μl of only medium. The microplates were incubated at 25°C and readings were recorded at 600 nm after 48 h. The lowest concentration showing no growth was considered as MIC. Each test was done in triplicate and optical density (OD600) of peptide treated wells were compared with uninoculated wells (blank medium control).

B. cereus MTCC 430 = assay: MIC, microtiter plate dilution assay; assay type: cell-based; conditions: 5 × 10^5 CFU/ml, 37°C, OD600 after 24 h, triplicate
Procedure: as §1

S. aureus MTCC 1430 [1] = assay: Transmission electron microscopy of treated cells; assay type: cell-based, Staphylococcus aureus; conditions: 2X and 5X MIC, 37°C overnight
Procedure: (§2) The effect of peptide on cell membrane was determined by scanning electron microscopy (SEM) and transmission electron microscopy (TEM) after treatment with AMPs. For this, test strains S. aureus MTCC 1430 and C. albicans MTCC 183 were cultured to mid-log phase in respective media. The cells were harvested by centrifugation at 10,000 × g for 10 min, washed thrice with 1X PBS, and re-suspended to adjust an OD600 of 0.2. […] Following the incubation, cells were processed for SEM and TEM as described ([Raje et al., 2006]). The specimens were completely dried using freeze drier, coated with gold, and visualized under a scanning electron microscope (ZEISS, Germany). For TEM (JEOL, JEM 2100, United States), cells were treated with peptide, washed, and subjected to negative stain 0.1% sodium phosphotungstate (Sigma, United States) for visualization. Effect of A52 lipopeptide on fungal spore was observed through a phase contrast microscope (Nickon H600L, Japan).

S. aureus MTCC 1430 [2] = assay: In-gel activity assay (Tricine-SDS-PAGE); assay type: cell-based, Staphylococcus aureus; conditions: 16% Tricine-SDS-PAGE, ∼10^6 cells/ml
Procedure: (§3) Purified antimicrobial peptides were analyzed on TLC plates (Silica gel 60 F254, Merck, Germany) and used to determine the purity and antimicrobial activity of the compound by bioautographic assay ([Zheng et al., 2005]). About 50–60 μl of the peptide solution (100 μg/ml concentration) was loaded onto individual TLC silica gel plates in duplicates and were developed using a solvent system containing chloroform: […]: water (65:12:4 v/v). Subsequently, each TLC plate was dried, cut into two vertical parts, and one part of the TLC was used for direct detection of antimicrobial activity by overlaying on NA plate containing indicator strain (S. aureus MTCC 1430, ∼10^6 cells/ml). After allowing for 1 h of diffusion at 4°C, the TLC strip was removed and plates were incubated for 24 h at 37°C. The other part of TLC strip (5–10 μl of the peptide solution spot) was sprayed with ninhydrin and phosphomolybdic acid as a staining reagent to detect the presence of peptides and lipid moieties, respectively. Similarly, peptides were electrophoresed on 16% Tricine-SDS-PAGE and used for in-gel activity assay as described earlier ([Baindara et al., 2016]). S. aureus MTCC 1430 (∼10^6 cells/ml) was used as an indicator strain in assay.

[3] = tested on: A. brassicicola MTCC 2102 spores; assay: Effect on fungal spores, phase contrast microscopy; assay type: cell-based, Alternaria brassicicola
Procedure: as §2

B. subtilis MTCC 121 = assay: MIC, microtiter plate dilution assay; assay type: cell-based, Bacillus subtilis; conditions: 5 × 10^5 CFU/ml, 37°C, OD600 after 24 h, triplicate
Procedure: (§4) The antimicrobial activity was tested by well diffusion assay as mentioned earlier ([Singh et al., 2014]). Strain A52 was grown for 24 h in 500 ml of nutrient broth (NB, Hi-media, India) using 1000 ml flask and subsequently cells were removed by centrifugation (10,000 rpm for 15 min at 4°C). Supernatant was filtered through 0.22 μm filter (Millipore, United States) to obtain cell-free fermented broth (CFB) that was used for antimicrobial assay (50 μl) against various indicator strains and the activity was measured as diameter of inhibition zone. […]
(§5) The minimum inhibitory concentration (MIC) of HPLC purified peptides was evaluated by using microtiter plate dilution assay. […] OD was measured at 600 nm after 24 and 48 h for bacteria and yeast, respectively, using ELISA microplate reader (Thermo, United States). MIC against phytopathogenic fungi was determined using 96-well microtiter plate assay ([Kaur et al., 2016]). […] The microplates were incubated at 25°C and readings were recorded at 600 nm after 48 h. […]

S. aureus MTCC 1430 [4] = assay: TLC overlay bioautography; assay type: cell-based, Staphylococcus aureus; conditions: ∼10^6 cells/ml, 24 h at 37°C
Procedure: as §3

M. luteus MTCC 106 = assay: MIC, microtiter plate dilution assay; assay type: cell-based, Micrococcus luteus; conditions: 5 × 10^5 CFU/ml, 37°C, OD600 after 24 h, triplicate
Procedure: as §4, §5

[5] = Collapse drop assay (CDA); assay type: physicochemical; conditions: 5 μl of peptide (10 μg/ml) on mineral oil, observed after 1 min
Procedure: The surfactant property of peptide was determined using the qualitative drop-collapse assay ([Youssef et al., 2004]). Mineral oil (2 μl) was added to 96-well microtiter plate and equilibrated for 24 h at 37°C. After equilibration 5 μl of purified peptides (10 μg/ml) were added to the surface of the oil and drop shape was observed after 1 min using magnifying glass. Triton X-100 and water were used as positive and negative control, respectively.

## Glu^1-Leu/Ile^2-Leu^3-Val^4-Asp^5-Leu^6-Leu/Ile^7 and a β-OH hexadecane fatty acid chain (lariat or depsi) [Lipopeptide A52, cyclic surfactin-like lipopeptide, 7 amino acids and C16 β-hydroxy fatty acid, 1061.9 Da, from B. subtilis strain A52]
B. coagulans MTCC 492
  MIC value, B. coagulans MTCC 492: 2 µg/mL
B. cereus MTCC 430
  MIC value, B. cereus MTCC 430: 2 µg/mL
S. aureus MTCC 1430 [1]
  cell morphology in TEM images: wall rupturing and cellular lysis
S. aureus MTCC 1430 [2]
  antimicrobial activity in in-gel assay: No antimicrobial activity was detected
[3]
  lysis of fungal spores: able to lyse the spores
B. subtilis MTCC 121
  MIC value, B. subtilis MTCC 121: 2 µg/mL
S. aureus MTCC 1430 [4]
  inhibition in TLC based overlay bioautographic assay: inhibited
M. luteus MTCC 106
  MIC value, M. luteus MTCC 106: 1 µg/mL
[5]
  drop collapse (surfactant property): positive
